The text below walks through data of US9770452B2, “Quinoxaline derivatives as GPR6 modulators” (Takeda Pharmaceutical Company Limited, priority 2012, dated 2017).

Broadly, the IC50 is the concentration needed to halve the response being measured.

Counter-ions that a name gives are not always drawn.

T1 sequence (P46095 whole entry): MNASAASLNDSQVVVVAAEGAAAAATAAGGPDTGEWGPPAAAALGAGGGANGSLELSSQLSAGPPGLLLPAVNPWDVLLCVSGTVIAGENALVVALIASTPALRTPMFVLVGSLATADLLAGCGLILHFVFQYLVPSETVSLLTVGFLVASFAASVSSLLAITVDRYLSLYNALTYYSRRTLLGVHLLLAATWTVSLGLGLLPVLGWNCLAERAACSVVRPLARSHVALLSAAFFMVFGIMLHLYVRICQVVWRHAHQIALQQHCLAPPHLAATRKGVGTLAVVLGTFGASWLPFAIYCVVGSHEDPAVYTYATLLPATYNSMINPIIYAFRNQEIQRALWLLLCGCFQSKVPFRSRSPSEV

The first assay has as its target T1, GPR6 receptor (Homo sapiens, UniProt P46095).
T1 construct: expressed in transfected cells
As to the kind of experiment: Inhibition of cAMP Activity of GPR6 In Vitro Assay (CHO-K1 cells, HTRF cAMP). The format is cell-based. To be noted: compounds of Compound Table 1; inhibition of constitutive cAMP activity of GPR6 expressed in CHO-K1 cells; approximate IC50; read-out: IC50. A digest of the protocol:
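CHO-K1 cells with doxycycline-induced (1 μg/ml, 20 h) GPR6 treated with compounds 45 min at 37 °C in Ringer's buffer (pH 7.4) with 0.5% fatty acid free BSA. Constitutive cAMP measured by Lance HTRF Ultra cAMP; IC50 from four-parameter logistic fit.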
(Time-resolved FRET reads energy transfer from a long-lived donor to a nearby acceptor.)
On to `COCCCNc1nc2ccccc2nc1N1CCN(Cc2cc(Cl)ccc2Cl)CC1` [Cpd 66, 3-(4-(2,5-dichlorobenzyl)piperazin-1-yl)-N-(3-methoxypropyl)quinoxalin-2-amine], for which the IC50 came out at 1940 nM.

As for “3-(4-(2,4-difluorobenzyl)piperidin-1-yl)-2-((2-methoxyethyl)amino)quinoxaline-6-carbonitrile [Cpd 518]”, the IC50 stood at 24 nM.

Regarding “(S)-3-(cyclopropylamino)-2-(4-((2,4-difluorophenyl)fluoromethyl)piperidin-1-yl)quinoxaline-6-carbonitrile [Cpd 509]”, the 50% inhibitory concentration (IC50) worked out at 49 nM.

Regarding “7-chloro-N-cyclopropyl-3-(4-(2,4-difluorophenoxy)piperidin-1-yl)pyrido[3,4-b]pyrazin-2-amine, 2,2,2-trifluoroacetic acid salt [Cpd 476]”, the IC50 stood at 15 nM.

Turning to “N-cyclopropyl-3-(4-(3-methoxyphenoxy)piperidin-1-yl)pyrido[3,4-b]pyrazin-2-amine, 2,2,2-trifluoroacetic acid salt [Cpd 558]”, the half-maximal inhibitory concentration (IC50) stood at 1940 nM.

Regarding “N-cyclopropyl-3-(4-(2,5-difluorophenoxy)piperidin-1-yl)pyrido[3,4-b]pyrazin-2-amine, 2,2,2-trifluoroacetic acid salt [Cpd 431]”, the IC50 came to 170 nM.

On to “2-((2,2-difluoroethyl)amino)-3-(4-(2,4-difluorophenoxy)piperidin-1-yl)-N,N-dimethylpyrido[3,4-b]pyrazine-7-carboxamide, 2,2,2-trifluoroacetic acid salt [Cpd 649]”, for which the concentration for half-maximal inhibition (IC50) was 44 nM.

As for “(S)-2-(cyclopropylamino)-3-(4-((2,4-difluorophenyl)fluoromethyl)piperidin-1-yl)-N,N-dimethylpyrido[3,4-b]pyrazine-7-carboxamide, 2,2,2-trifluoroacetic acid salt [Cpd 577]”, the IC50 came to 4900 nM.

For `Cc1ccc(Nc2nc3ccccc3nc2N2CCN(Cc3cccc(Cl)c3)CC2)cc1` [Cpd 30, 3-(4-(3-chlorobenzyl)piperazin-1-yl)-N-(p-tolyl)quinoxalin-2-amine, 2,2,2-trifluoroacetic acid salt], the IC50 worked out at 26200 nM.

Turning to “(S)—N-cyclopropyl-3-(4-((2,4-difluorophenyl)fluoromethyl)piperidin-1-yl)-5-methylpyrido[3,4-b]pyrazin-2-amine, 2,2,2-trifluoroacetic acid salt [Cpd 516]”, the IC50 was 29 nM.

For “8-bromo-N-cyclopropyl-3-(4-(2,5-dichlorobenzyl)piperazin-1-yl)quinoxalin-2-amine, 2,2,2-trifluoroacetic acid salt [Cpd 133]”, the IC50 is 32 nM.

For the compound “3-(4-((5-chloro-2-fluorophenyl)fluoromethyl)piperidin-1-yl)-N-cyclopropylpyrido[3,4-b]pyrazin-2-amine [Cpd 452]”, the IC50 was 21 nM.

Consider “(1-(2-(cyclopropylamino)pyrido[3,4-b]pyrazin-3-yl)piperidin-4-yl)(thiophen-3-yl)methanone, 2,2,2-trifluoroacetic acid salt [Cpd 584]”, for which the IC50 was 1740 nM.

As for “1-(4-((1-(2-(cyclopropylamino)pyrido[3,4-b]pyrazin-3-yl)piperidin-4-yl)oxy)phenyl)ethanone, 2,2,2-trifluoroacetic acid salt [Cpd 582]”, the concentration for half-maximal inhibition (IC50) was determined as 7 nM.

In the case of “(S)—N-cyclopropyl-3-(4-((2,4-difluorophenyl)fluoromethyl)piperidin-1-yl)pyrazino[2,3-d]pyridazin-2-amine, 2,2,2-trifluoroacetic acid salt [Cpd 594]”, the half-inhibitory concentration (IC50) came to 31 nM.

`Fc1ccc(Nc2nc3ccccc3nc2N2CCN(Cc3cccc(Cl)c3)CC2)cc1` [Cpd 38, 3-(4-(3-chlorobenzyl)piperazin-1-yl)-N-(4-fluorophenyl)quinoxalin-2-amine, 2,2,2-trifluoroacetic acid salt]: the IC50 amounted to 5730 nM.

Consider `N#Cc1ccc(Nc2nc3ccccc3nc2N2CCN(Cc3cc(Cl)ccc3Cl)CC2)cc1` [Cpd 58, 4-((3-(4-(2,5-dichlorobenzyl)piperazin-1-yl)quinoxalin-2-yl)amino)benzonitrile], for which the IC50 stood at 5530 nM.

“(1-(2-(cyclopropylamino)pyrido[3,4-b]pyrazin-3-yl)piperidin-4-yl)(2,4,6-trifluorophenyl)methanone, 2,2,2-trifluoroacetic acid salt [Cpd 444]”: the IC50 is 200 nM.

As to “3-(1-(2-(cyclopropylamino)pyrido[3,4-b]pyrazin-3-yl)piperidine-4-carbonyl)-4-fluorobenzonitrile, 2,2,2-trifluoroacetic acid salt [Cpd 587]”, the IC50 is 78 nM.

Regarding “8-chloro-3-(4-(5-chloro-2-fluorobenzyl)piperazin-1-yl)-N-cyclopropylpyrido[3,4-b]pyrazin-2-amine, 2,2,2-trifluoroacetic acid salt [Cpd 351]”, the IC50 is 62 nM.

As to “3-(4-((2-chloro-4-(trifluoromethyl)phenyl)sulfonyl)piperazin-1-yl)-2-(cyclopropylamino)quinoxaline-6-carbonitrile, 2,2,2-trifluoroacetic acid salt [Cpd 330]”, the IC50 stood at 29 nM.

On to “2-((1-(2-(cyclopropylamino)pyrido[3,4-b]pyrazin-3-yl)piperidin-4-yl)oxy)benzonitrile [Cpd 574]”, for which the half-maximal inhibitory concentration (IC50) was 4810 nM.

Turning to “3-(4-(5-chloro-2-fluorobenzoyl)piperidin-1-yl)-2-(cyclopropylamino)quinoxaline-6-carbonitrile, 2,2,2-trifluoroacetic acid salt [Cpd 469]”, the IC50 was 90 nM.

In the case of “(S)-2-(cyclopropylamino)-3-(4-((2,4-difluorophenyl)fluoromethyl)piperidin-1-yl)pyrido[3,4-b]pyrazine-7-carbonitrile [Cpd 547]”, the concentration for half-maximal inhibition (IC50) was determined as 16 nM.

As to `COc1ccc(C(=O)N2CCN(c3nc4ccccc4nc3NC3CC3)CC2)cc1Cl` [Cpd 9, (3-chloro-4-methoxyphenyl)(4-(3-(cyclopropylamino)quinoxalin-2-yl)piperazin-1-yl)methanone, 2,2,2-trifluoroacetic acid salt], the half-inhibitory concentration (IC50) turned out to be 10100 nM.

As for “azetidin-1-yl(2-(cyclopropylamino)-3-(4-(2-fluoro-4-methoxyphenoxy)piperidin-1-yl)pyrido[3,4-b]pyrazin-5-yl)methanone, 2,2,2-trifluoroacetic acid salt [Cpd 610]”, the concentration for half-maximal inhibition (IC50) was 1570 nM.

Still in this assay, the particulars now being: compounds of Compound Table 2; inhibition of constitutive cAMP activity of GPR6 expressed in CHO-K1 cells; approximate IC50; read-out: IC50.
For the compound `Cc1cc2nc(NC3CC3)c(C3CCN(Cc4ccc(F)cc4F)CC3)nc2cn1` [Compound Table 2: Cpd 6, N-cyclopropyl-3-(1-(2,4-difluorobenzyl)piperidin-4-yl)-7-methylpyrido[3,4-b]pyrazin-2-amine, 2,2,2-trifluoroacetic acid salt], the IC50 is 530 nM.

For `CC1CN(C(=O)c2cc(Cl)ccc2Cl)CCN1c1nc2ccccc2nc1NC1CC1` (centres unmarked) [Compound Table 2: Cpd 8, (4-(3-(cyclopropylamino)quinoxalin-2-yl)-3-methylpiperazin-1-yl)(2,5-dichlorophenyl)methanone, 2,2,2-trifluoroacetic acid salt], the half-inhibitory concentration (IC50) stood at 79600 nM.

In the case of `N#Cc1ccc2nc(NC3CC3)c(C3CCN(Cc4cc(Cl)ccc4Cl)CC3)nc2c1` [Compound Table 2: Cpd 3, 2-(cyclopropylamino)-3-(1-(2,5-dichlorobenzyl)piperidin-4-yl)quinoxaline-6-carbonitrile, 2,2,2-trifluoroacetic acid salt], the IC50 worked out at 840 nM.
